In ChEMBL document CHEMBL3232984, “Synthesis and tripanocidal activity of ferrocenyl and benzyl diamines against Trypanosoma brucei and Trypanosoma cruzi” (Bioorg Med Chem Lett, 2014):

Legend:
[1] = Safety index, ratio of IC50 for human HepG2 cells to IC50 for […] 29-13; type: toxicity, cell-based; details: read-out: Ratio IC50
Trypanosoma cruzi = experiment: Antimicrobial activity against epimastigote stage of Trypanosoma cruzi Y after 72 hrs by MTT assay; type: functional, organism-based
[2] = Safety index, ratio of IC50 for human HepG2 cells to IC50 for procyclic stage of Trypanosoma brucei 427; type: toxicity, cell-based; details: HepG2 cells versus procyclic stage of Trypanosoma brucei 427, read-out: Ratio IC50
Trypanosoma brucei [3] = experiment: Antimicrobial activity against procyclic stage of Trypanosoma brucei 427 after 24 hrs by MTT assay; type: functional, organism-based; details: Trypanosoma brucei, 427, 24 h
Trypanosoma brucei [4] = experiment: Antimicrobial activity against […] 29-13 after 24 hrs by MTT assay; type: functional, organism-based; details: 29-13, 24 h
[5] = Safety index, ratio of IC50 for human HepG2 cells to IC50 for epimastigote stage of Trypanosoma cruzi Y; type: toxicity, cell-based; details: HepG2 cells versus epimastigote stage of Trypanosoma cruzi Y, read-out: Ratio IC50
HepG2 = experiment: Cytotoxicity against human HepG2 cells by MTT assay; type: cell-based

Cl.Cl.c1ccc(CNCCNCc2ccccc2)cc1
selectivity ratio [1]: 22.4 | IC50 (Trypanosoma cruzi): 160 µM | selectivity ratio [2]: 20.2 | IC50 (Trypanosoma brucei [3]): 11.1 µM | IC50 (Trypanosoma brucei [4]): 9.99 µM | selectivity ratio [5]: 1.4 | IC50 (HepG2): 224 µM

COc1ccc(CNCCNCc2ccc(OC)cc2)cc1
selectivity ratio [1]: 115 | IC50 (Trypanosoma cruzi): 10.9 µM | selectivity ratio [2]: 120 | IC50 (Trypanosoma brucei [3]): 8.25 µM | IC50 (Trypanosoma brucei [4]): 8.63 µM | selectivity ratio [5]: 90.9 | IC50 (HepG2): 991 µM

Oc1ccccc1CNCCNCc1ccccc1O
selectivity ratio [1]: 28.7 | IC50 (Trypanosoma cruzi): 109 µM | selectivity ratio [2]: 32.1 | IC50 (Trypanosoma brucei [3]): 4.61 µM | IC50 (Trypanosoma brucei [4]): 5.16 µM | selectivity ratio [5]: 1.36 | IC50 (HepG2): 148 µM

Clc1ccc(CNCCNCc2ccc(Cl)cc2Cl)c(Cl)c1
selectivity ratio [1]: 16.7 | IC50 (Trypanosoma cruzi): 51.4 µM | selectivity ratio [2]: 22.7 | IC50 (Trypanosoma brucei [3]): 12.3 µM | IC50 (Trypanosoma brucei [4]): 16.8 µM | selectivity ratio [5]: 5.45 | IC50 (HepG2): 281 µM

O=[N+]([O-])c1ccc(CNCCNCc2ccc([N+](=O)[O-])cc2)cc1
selectivity ratio [1]: 30.7 | IC50 (Trypanosoma cruzi): 122 µM | selectivity ratio [2]: 16.1 | IC50 (Trypanosoma brucei [3]): 36.6 µM | IC50 (Trypanosoma brucei [4]): 19.2 µM | selectivity ratio [5]: 4.84 | IC50 (HepG2): 590 µM

O=C(Cn1ccnc1[N+](=O)[O-])NCc1ccccc1 [BENZNIDAZOLE]
selectivity ratio [1]: 14.2 | IC50 (Trypanosoma cruzi): 34 µM | selectivity ratio [2]: 10.2 | IC50 (Trypanosoma brucei [3]): 208 µM | IC50 (Trypanosoma brucei [4]): 150 µM | selectivity ratio [5]: 62.5 | IC50 (HepG2): 2130 µM

N=C(N)c1ccc(OCCCCCOc2ccc(C(=N)N)cc2)cc1 [PENTAMIDINE]
selectivity ratio [1]: 24.8 | IC50 (Trypanosoma cruzi): 4.58 µM | selectivity ratio [2]: 24.8 | IC50 (Trypanosoma brucei [3]): 6.43 µM | IC50 (Trypanosoma brucei [4]): 6.43 µM | selectivity ratio [5]: 34.9 | IC50 (HepG2): 160 µM
